Measurements as given in ChEMBL document CHEMBL1152362, “Asperelines A-F, peptaibols from the marine-derived fungus Trichoderma asperellum” (J Nat Prod, 2009).
Non-standard residues stand in square brackets, D forms with d. Residues, ends and D or L forms follow the SMILES beside them. *: point of attachment. Prolinol = OC[C@@H]1CCCN1*; Aib = CC(C)(N)C(=O)O

Key:
Staphylococcus aureus = experiment: Antimicrobial activity against Staphylococcus aureus; type: functional
Alternaria solani = experiment: Antimicrobial activity against Alternaria solani; type: functional, organism-based
Pyricularia oryzae = experiment: Antimicrobial activity against Pyricularia oryzae; type: functional, organism-based
Escherichia coli = experiment: Antimicrobial activity against Escherichia coli; type: functional

| SMILES | IC90 (Staphylococcus aureus) | IC50 (Alternaria solani) | IC50 (Pyricularia oryzae) | IC90 (Escherichia coli) |
| --- | --- | --- | --- | --- |
| CC[C@@H](C)[C@H](NC(=O)C(C)(C)NC(=O)[C@@H](NC(=O)C(C)(C)NC(=O)C(C)(C)NC(C)=O)C(C)C)C(=O)NC(C)(C)C(=O)NC(C)(C)C(=O)N[C@@H](C)C(=O)NC(C)(C)C(=O)N1CCC[C@H]1CO [ASPERELINE A] | > 500 mg/L | > 100 mg/L | > 100 mg/L | > 500 mg/L |
| CC[C@@H](C)[C@H](NC(=O)C(C)(C)NC(=O)[C@@H](NC(=O)C(C)(C)NC(=O)[C@H](C)NC(C)=O)C(C)C)C(=O)NC(C)(C)C(=O)NC(C)(C)C(=O)N[C@@H](C)C(=O)NC(C)(C)C(=O)N1CCC[C@H]1CO [ASPERELINE B] | > 500 mg/L | > 100 mg/L | > 100 mg/L | > 500 mg/L |
| CC[C@@H](C)[C@H](NC(=O)C(C)(C)NC(=O)[C@@H](NC(=O)C(C)(C)NC(=O)C(C)(C)NC(C)=O)C(C)C)C(=O)NC(C)(C)C(=O)N[C@@H](C)C(=O)N[C@@H](C)C(=O)NC(C)(C)C(=O)N1CCC[C@H]1CO [ASPERELINE C] | > 500 mg/L | > 100 mg/L | > 100 mg/L | > 500 mg/L |
| CC(=O)NC(C)(C)C(=O)NC(C)(C)C(=O)N[C@H](C(=O)NC(C)(C)C(=O)N[C@H](C(=O)NC(C)(C)C(=O)NC(C)(C)C(=O)N[C@@H](C)C(=O)NC(C)(C)C(=O)N1CCC[C@H]1CO)C(C)C)C(C)C [ASPERELINE D] (Ac-[Aib][Aib]V[Aib]V[Aib][Aib]A[Aib]-Prolinol) | > 500 mg/L | > 100 mg/L | > 100 mg/L | > 500 mg/L |
| CC[C@@H](C)[C@H](NC(=O)C(C)(C)NC(=O)[C@@H](NC(=O)C(C)(C)NC(=O)C(C)(C)NC(C)=O)C(C)C)C(=O)NC(C)(C)C(=O)NC(C)(C)C(=O)N[C@@H](CO)C(=O)NC(C)(C)C(=O)N1CCC[C@H]1CO [ASPERELINE E] | > 500 mg/L | > 100 mg/L | > 100 mg/L | > 500 mg/L |
| CC[C@@H](C)[C@H](NC(=O)C(C)(C)NC(=O)[C@@H](NC(=O)[C@@H](NC(=O)C(C)(C)NC(C)=O)C(C)C)C(C)C)C(=O)NC(C)(C)C(=O)NC(C)(C)C(=O)N[C@@H](C)C(=O)NC(C)(C)C(=O)N1CCC[C@H]1CO [ASPERELINE F] | > 500 mg/L | > 100 mg/L | > 100 mg/L | > 500 mg/L |
